In ChEMBL document CHEMBL1201862, “PubChem BioAssay data set” (2004):
Active and inactive are the calls of the source.

Key:
Estrogen receptor = biological target: T1, Estrogen receptor (Homo sapiens, UniProt P03372);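 also: potency for inhibiting coactivator peptide recruitment to the receptor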
T1 sequence (P03372 whole entry): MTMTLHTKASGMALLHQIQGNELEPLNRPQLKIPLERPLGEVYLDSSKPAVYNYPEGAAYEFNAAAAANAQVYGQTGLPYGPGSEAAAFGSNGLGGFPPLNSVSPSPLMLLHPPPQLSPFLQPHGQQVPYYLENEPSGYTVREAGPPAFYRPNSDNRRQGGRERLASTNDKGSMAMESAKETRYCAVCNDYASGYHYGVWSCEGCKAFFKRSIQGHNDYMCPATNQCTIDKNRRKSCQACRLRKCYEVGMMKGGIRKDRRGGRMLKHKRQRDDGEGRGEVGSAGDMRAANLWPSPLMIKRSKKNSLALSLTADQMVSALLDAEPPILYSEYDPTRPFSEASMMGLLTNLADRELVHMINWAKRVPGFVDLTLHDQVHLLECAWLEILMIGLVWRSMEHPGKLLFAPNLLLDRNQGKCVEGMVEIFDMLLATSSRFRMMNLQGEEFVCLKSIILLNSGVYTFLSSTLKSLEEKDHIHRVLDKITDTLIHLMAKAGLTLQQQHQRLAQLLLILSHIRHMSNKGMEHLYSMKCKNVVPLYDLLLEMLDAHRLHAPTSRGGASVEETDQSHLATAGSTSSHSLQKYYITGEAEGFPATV

Estrogen receptor beta = Estrogen receptor beta (Homo sapiens, UniProt Q92731);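 also: recombinant ER-beta bound to coactivator SRC1 peptide in presence of estradiol agonist; inhibitors block coactivator peptide binding and lower the FRET signal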
Sequence of Estrogen receptor beta (Q92731 whole entry): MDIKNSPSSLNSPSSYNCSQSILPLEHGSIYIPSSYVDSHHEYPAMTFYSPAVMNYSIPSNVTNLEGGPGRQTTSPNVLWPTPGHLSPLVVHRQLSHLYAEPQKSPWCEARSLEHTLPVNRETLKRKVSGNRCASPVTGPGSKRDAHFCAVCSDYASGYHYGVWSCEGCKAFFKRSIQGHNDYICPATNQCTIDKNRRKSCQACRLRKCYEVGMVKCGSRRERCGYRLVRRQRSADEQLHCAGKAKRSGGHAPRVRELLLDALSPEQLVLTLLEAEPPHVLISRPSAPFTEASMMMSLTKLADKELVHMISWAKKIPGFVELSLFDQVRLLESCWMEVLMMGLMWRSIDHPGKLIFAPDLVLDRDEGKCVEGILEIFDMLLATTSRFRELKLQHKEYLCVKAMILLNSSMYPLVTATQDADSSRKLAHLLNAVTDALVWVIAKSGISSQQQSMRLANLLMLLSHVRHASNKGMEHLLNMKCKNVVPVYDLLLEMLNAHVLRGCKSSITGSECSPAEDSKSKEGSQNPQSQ

[1] = viability loss in THP-1 monocytes – THP-1 cells, cytotoxicity control for Vif-APOBEC3G degradation inhibitor project, dose response (AID 1117359); assay type: functional; details: THP-1
[2] = Luminescent dose response cell-based high throughput screening assay for inhibitors of the Janus kinase 2 mutant JAK2V617F. [Related pubchem assays: 1446 (Primary screen.), 1521 (Confirmation assay.), 1486 (Counter screen.)]; assay type: functional
[3] = biological target: T2, Rac GTPase-activating protein 1 (Homo sapiens, UniProt Q9H0H5); assay: blockers of MgcRacGAP-driven Rac1 GTP hydrolysis – biochemical, ADP Hunter fluorescence, primary and confirmatory, confirmation (AID 624330); assay type: functional
T2 sequence (Q9H0H5 whole entry): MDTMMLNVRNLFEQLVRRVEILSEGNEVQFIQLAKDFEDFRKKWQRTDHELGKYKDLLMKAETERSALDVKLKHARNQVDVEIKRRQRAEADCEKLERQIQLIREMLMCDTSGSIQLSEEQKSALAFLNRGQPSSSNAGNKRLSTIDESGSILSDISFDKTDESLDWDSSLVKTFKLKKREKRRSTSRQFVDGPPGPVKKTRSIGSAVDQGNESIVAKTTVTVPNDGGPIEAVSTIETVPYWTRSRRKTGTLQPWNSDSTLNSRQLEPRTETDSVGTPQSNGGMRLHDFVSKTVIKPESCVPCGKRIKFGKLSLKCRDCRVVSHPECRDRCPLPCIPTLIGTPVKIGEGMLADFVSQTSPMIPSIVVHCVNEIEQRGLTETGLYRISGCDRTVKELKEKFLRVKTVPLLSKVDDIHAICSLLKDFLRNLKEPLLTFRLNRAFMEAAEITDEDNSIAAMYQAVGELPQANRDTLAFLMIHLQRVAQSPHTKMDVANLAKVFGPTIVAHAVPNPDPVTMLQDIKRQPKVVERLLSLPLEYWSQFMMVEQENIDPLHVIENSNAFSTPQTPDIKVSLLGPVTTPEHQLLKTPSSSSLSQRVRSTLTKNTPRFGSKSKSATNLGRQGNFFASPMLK

Ephrin type-A receptor 4 = Ephrin type-A receptor 4 (Mus musculus, UniProt Q03137); assay: EphA4 ligand-binding antagonists – biochemical, colorimetric, mouse EphA4, primary screen (AID 689); assay type: functional
Sequence of Ephrin type-A receptor 4 (Q03137 whole entry): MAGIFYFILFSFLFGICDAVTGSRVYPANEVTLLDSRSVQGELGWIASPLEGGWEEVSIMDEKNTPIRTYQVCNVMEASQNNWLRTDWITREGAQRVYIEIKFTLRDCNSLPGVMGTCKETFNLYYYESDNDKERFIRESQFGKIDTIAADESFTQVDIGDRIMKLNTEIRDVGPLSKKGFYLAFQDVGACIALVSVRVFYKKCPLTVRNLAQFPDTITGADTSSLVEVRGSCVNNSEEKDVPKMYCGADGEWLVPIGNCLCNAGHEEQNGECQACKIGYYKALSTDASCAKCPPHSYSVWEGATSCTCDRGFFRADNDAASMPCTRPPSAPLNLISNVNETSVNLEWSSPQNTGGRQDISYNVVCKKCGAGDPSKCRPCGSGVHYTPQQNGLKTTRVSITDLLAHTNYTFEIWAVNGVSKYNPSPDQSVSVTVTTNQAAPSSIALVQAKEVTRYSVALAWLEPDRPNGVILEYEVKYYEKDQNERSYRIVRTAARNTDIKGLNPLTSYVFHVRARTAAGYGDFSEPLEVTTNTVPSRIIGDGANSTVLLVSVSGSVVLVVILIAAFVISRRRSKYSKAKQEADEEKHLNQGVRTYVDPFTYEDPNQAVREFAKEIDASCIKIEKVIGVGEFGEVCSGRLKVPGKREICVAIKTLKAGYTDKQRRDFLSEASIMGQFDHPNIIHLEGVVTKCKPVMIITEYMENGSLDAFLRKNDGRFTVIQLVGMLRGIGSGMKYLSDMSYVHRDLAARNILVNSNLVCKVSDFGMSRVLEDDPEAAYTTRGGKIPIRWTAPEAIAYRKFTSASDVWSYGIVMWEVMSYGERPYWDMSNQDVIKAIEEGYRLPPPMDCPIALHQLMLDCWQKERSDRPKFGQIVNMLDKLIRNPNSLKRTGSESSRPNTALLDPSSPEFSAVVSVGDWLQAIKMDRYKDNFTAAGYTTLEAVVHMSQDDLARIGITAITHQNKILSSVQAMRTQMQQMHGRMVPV

Cytochrome P450 1A2 = biological target: T3, Cytochrome P450 1A2 (Homo sapiens, UniProt P05177);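 also: PubChem cytochrome P450 panel assay, CYP1A2 panel member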
T3 sequence (P05177 whole entry): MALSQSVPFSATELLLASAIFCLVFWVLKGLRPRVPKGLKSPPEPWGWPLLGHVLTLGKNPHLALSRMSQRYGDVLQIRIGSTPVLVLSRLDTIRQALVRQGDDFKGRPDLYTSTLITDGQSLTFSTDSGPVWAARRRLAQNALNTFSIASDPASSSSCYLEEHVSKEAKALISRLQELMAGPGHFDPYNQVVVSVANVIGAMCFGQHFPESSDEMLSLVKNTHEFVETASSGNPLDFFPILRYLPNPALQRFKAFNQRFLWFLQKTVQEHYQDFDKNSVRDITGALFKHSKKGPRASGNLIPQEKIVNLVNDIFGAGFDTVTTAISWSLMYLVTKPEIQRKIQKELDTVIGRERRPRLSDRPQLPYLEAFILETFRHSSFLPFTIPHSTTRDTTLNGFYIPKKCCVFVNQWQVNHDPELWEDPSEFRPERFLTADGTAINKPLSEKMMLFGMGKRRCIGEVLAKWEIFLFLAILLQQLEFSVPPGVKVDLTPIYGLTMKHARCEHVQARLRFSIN

[4] = microbe, parasite or virus in culture; assay type: functional; details: Mycobacterium tuberculosis
[5] = biological target: T4, Corticotropin-releasing factor receptor 2/Corticotropin-releasing factor-binding protein (Homo sapiens, UniProt P24387+Q13324); assay: Dose Response confirmation of uHTS hits for small molecule antagonists of the CRF-binding protein and CRF-R2 receptor complex.; assay type: functional; details: read-out: IC50_Mean
T4 sequence (Q13324 whole entry): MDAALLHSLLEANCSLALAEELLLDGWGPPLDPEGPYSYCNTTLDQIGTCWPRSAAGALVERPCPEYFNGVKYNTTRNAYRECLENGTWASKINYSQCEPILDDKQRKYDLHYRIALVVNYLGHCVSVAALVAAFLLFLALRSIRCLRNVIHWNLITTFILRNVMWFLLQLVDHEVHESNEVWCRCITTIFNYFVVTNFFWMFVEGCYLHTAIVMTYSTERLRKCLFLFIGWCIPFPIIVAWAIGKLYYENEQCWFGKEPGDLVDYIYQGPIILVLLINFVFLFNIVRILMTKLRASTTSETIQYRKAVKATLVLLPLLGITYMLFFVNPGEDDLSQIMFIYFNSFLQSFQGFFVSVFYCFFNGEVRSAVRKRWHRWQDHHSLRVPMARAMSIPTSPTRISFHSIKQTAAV
T4 sequence (P24387 whole entry): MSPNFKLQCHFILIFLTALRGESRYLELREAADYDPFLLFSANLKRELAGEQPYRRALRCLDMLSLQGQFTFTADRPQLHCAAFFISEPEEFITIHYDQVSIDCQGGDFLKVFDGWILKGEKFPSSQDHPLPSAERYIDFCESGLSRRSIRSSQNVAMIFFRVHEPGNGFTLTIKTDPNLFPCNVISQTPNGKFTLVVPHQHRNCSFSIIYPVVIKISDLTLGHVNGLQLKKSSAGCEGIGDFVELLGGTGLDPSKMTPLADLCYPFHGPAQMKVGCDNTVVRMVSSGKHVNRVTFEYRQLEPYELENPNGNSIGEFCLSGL

[6] = M. tuberculosis growth inhibition, HTS (AID 449762); assay type: functional
[7] = biological target: T4, Corticotropin-releasing factor receptor 2/Corticotropin-releasing factor-binding protein; assay: activators of CRF receptor 2 with binding protein – uHTS hits, confirmation (AID 602473); assay type: functional; details: read-out: EC50_Mean
[8] = viability of uninfected HEp-2 cells – cell-based, HTS, cytotoxicity control for RSV inhibitor project, dose response (AID 2410); assay type: functional; details: human respiratory syncytial virus

Cn1nc([N+](=O)[O-])c2c(-c3nc4ccccc4s3)c(N)n(C3CCCCC3)c2c1=O
IC50 (Estrogen receptor): 4.98 µM (active) | IC50 (Estrogen receptor beta): 6.01 µM (active)

O=C(/C=C/c1ccc(O)c(O)c1)c1ccc(S(=O)(=O)N2CCCCCC2)cc1
CC50 [1]: 26.3 µM (active) | IC50 [2]: 0.835 µM (active) | IC50 [3]: 82 µM (active)

Brc1ccc(-c2nnc(-c3cccc(Br)c3)o2)cc1
IC50 (Ephrin type-A receptor 4): > 100 µM (not active) | AC50 (Cytochrome P450 1A2): 0.316 µM (inconclusive)

Cc1nn(-c2ccccc2)c(N2CCCC2)c1/C=N/Nc1ccc(S(N)(=O)=O)cc1[N+](=O)[O-]
CC50 [4]: > 40 µM (active) | IC50 [5]: > 47.1 µM (inactive) | IC50 [6]: > 100 µM (active) | EC50 [7]: > 53 µM (inactive) | CC50 [8]: 33.2 µM (active)
